The results in this text go back to paper PMC10709440, “High-throughput ligand profile characterization in novel cell lines expressing seven heterologous insect olfactory receptors for the detection of volatile plant biomarkers” (Scientific Reports, 2023).

Read-outs that look alike come from different tables or passages of the source.

One experiment has as its target T1, Drosophila OR71a (Drosophila melanogaster, UniProt Q9VUK5).
T1 construct: expressed in transfected cells
T1 sequence (Q9VUK5 1-378): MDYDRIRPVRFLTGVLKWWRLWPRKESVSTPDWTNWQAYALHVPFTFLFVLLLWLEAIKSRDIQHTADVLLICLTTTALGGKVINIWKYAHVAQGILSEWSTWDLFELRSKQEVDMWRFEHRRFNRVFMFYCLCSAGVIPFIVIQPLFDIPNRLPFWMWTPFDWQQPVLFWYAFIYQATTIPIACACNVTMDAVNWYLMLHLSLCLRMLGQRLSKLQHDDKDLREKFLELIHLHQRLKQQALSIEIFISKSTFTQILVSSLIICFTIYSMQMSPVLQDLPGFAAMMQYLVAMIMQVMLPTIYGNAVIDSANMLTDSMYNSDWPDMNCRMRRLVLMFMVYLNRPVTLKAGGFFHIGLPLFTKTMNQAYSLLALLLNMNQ
T1 sequence (Q9VNB5 1-486 partner): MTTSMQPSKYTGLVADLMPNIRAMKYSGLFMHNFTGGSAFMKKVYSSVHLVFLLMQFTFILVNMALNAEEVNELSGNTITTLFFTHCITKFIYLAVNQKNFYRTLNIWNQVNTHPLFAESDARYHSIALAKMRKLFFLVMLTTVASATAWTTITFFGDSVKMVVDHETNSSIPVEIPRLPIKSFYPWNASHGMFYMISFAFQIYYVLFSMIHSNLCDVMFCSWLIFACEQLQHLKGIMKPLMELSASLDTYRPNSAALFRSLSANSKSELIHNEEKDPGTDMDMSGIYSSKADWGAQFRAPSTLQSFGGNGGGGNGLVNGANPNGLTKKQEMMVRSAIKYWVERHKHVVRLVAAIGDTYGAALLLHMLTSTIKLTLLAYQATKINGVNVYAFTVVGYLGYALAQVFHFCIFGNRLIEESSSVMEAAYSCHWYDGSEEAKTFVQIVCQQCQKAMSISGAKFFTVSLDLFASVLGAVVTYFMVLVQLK
As to the kind of experiment: Calcium ion fluorescence (GCaMP6) assay, OR71a stable HEK293 cell line. The note with it: for activation at 1 µM / activation at 10 µM / activation at 100 µM: HEK293, read-out: OR71a response (VUAA1-normalized response); for Average response: OR71a cell line, VUAA1-normalized response, mean of biological replicates. The format is cell-based. The essentials: (§1)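 Responses are VUAA1-normalized ΔF: each VOC-evoked calcium signal, (FMAX−F0)/F0 over 30 s after injection, divided by the same line's mean 50 µM VUAA1 response. Cells were doxycycline-induced HEK293 with GCaMP6 and the cognate Drosophila OR, in HEPES buffer pH 7.3; ligands tested 0.01–100 μM.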

The target in a further experiment is T2, Drosophila OR10a (Drosophila melanogaster, UniProt Q9VYZ1).
T2 construct: expressed in transfected cells
T2 sequence (Q9VYZ1 1-406): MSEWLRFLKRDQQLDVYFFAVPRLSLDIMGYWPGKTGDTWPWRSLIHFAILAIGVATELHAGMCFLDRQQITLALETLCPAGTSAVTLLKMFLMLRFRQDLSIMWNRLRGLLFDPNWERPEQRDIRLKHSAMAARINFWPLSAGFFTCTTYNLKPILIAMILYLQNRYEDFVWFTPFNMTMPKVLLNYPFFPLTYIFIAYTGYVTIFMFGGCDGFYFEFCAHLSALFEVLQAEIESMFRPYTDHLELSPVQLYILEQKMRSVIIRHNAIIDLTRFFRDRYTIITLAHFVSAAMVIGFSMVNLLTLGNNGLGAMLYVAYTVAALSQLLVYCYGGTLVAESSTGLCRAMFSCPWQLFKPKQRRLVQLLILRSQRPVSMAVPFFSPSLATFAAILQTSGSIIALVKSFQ
T2 sequence (Q9VNB5 1-486 partner): T1 sequence (Q9VNB5 1-486 partner)
As to the kind of experiment: Calcium ion fluorescence (GCaMP6) assay, OR10a stable HEK293 cell line. The format is cell-based. In a few lines: as §1

The mark [1] stands for this setting: ligand concentration 1 (unit not given), threshold 0.05, below shown as 0.
[2] abbreviates: ligand concentration 10 (unit not given), threshold 0.05, below shown as 0.
Setting [3] is: ligand concentration 100 (unit not given), threshold 0.05, below shown as 0.
Setting [4] is: HEK293, read-out: OR10a response (VUAA1-normalized response), VOC concentration 1 μM.
Setting [5] is: HEK293, read-out: OR10a response (VUAA1-normalized response), VOC concentration 10 μM.
Setting [6] is: HEK293, read-out: OR10a response (VUAA1-normalized response), VOC concentration 100 μM.
[7] abbreviates: concentration 1, normalized fluorescence change, values below 0.05 threshold given as 0.
The mark [8] stands for this setting: concentration 10, normalized fluorescence change, values below 0.05 threshold given as 0.
Where [9] appears, read: concentration 100, normalized fluorescence change, values below 0.05 threshold given as 0.

`CC(=O)OCC(C)C` [isobutyl acetate]: the activation at 1 µM on Drosophila OR71a was 0%; at Drosophila OR10a (HEK293, read-out: OR10a Average response (VUAA1-normalized), 1 μM VOC, 50 μM VUAA1 = 1, responses not exceeding 0.05 considered 0) it was 7%; on Drosophila OR10a (setting [4]), 6.57%. Further, the activation at 10 µM at Drosophila OR71a turned out to be 0%; at Drosophila OR10a (HEK293, read-out: OR10a Average response (VUAA1-normalized), 10 μM VOC, 50 μM VUAA1 = 1, responses not exceeding 0.05 considered 0) it was 5%; on Drosophila OR10a (setting [5]), 0%. In addition, the activation at 100 µM on Drosophila OR71a came to 0%; on Drosophila OR10a (HEK293, read-out: OR10a Average response (VUAA1-normalized), 100 μM VOC, 50 μM VUAA1 = 1, responses not exceeding 0.05 considered 0), 18%; on Drosophila OR10a (setting [6]), 18%. Further, the Average response on Drosophila OR71a (cc. 1 µM) was found to be 0.038; at Drosophila OR71a (cc. 10 µM), 0.0316; on Drosophila OR71a (cc. 100 µM), 0.00. Moreover, the “DF norm AVERAGE OR71a” value on Drosophila OR71a (setting [1]), on Drosophila OR71a (setting [2]) and at Drosophila OR71a (setting [3]) was 0 throughout. Also, the “DF norm AVERAGE OR10a” value stood at 0.06574 on Drosophila OR10a (setting [1]), 0 at Drosophila OR10a (setting [2]) and 0.1821 at Drosophila OR10a (setting [3]).
As to `Cc1ccc(O)cc1` [4-methylphenol], the activation at 1 µM on Drosophila OR71a worked out at 0%; on Drosophila OR10a (HEK293, 1 μM VOC, 50 μM VUAA1 = 1, responses not exceeding 0.05 considered 0, read-out: OR10a Average response (VUAA1-normalized)), 2.37%; on Drosophila OR10a (setting [4]) it was 0%. Also, the activation at 10 µM came out at 0% on Drosophila OR71a; 1.81% on Drosophila OR10a (HEK293, 10 μM VOC, 50 μM VUAA1 = 1, responses not exceeding 0.05 considered 0, read-out: OR10a Average response (VUAA1-normalized)); 0% at Drosophila OR10a (setting [5]). Further, the activation at 100 µM on Drosophila OR71a worked out at 0%; on Drosophila OR10a (HEK293, 100 μM VOC, 50 μM VUAA1 = 1, responses not exceeding 0.05 considered 0, read-out: OR10a Average response (VUAA1-normalized)) it was 6.62%; at Drosophila OR10a (setting [6]), 6.62%. Also, the Average response at Drosophila OR71a (cc. 1 µM), on Drosophila OR71a (cc. 10 µM) and on Drosophila OR71a (cc. 100 µM) was 0.00 each time. Besides, the “DF norm AVERAGE OR71a” value on Drosophila OR71a (setting [7]), on Drosophila OR71a (setting [8]) and on Drosophila OR71a (setting [9]) was 0 each time.
As for (-)-alpha-cedrene, the Average response came out at 0.00 at Drosophila OR71a (cc. 1 µM), 0.043 at Drosophila OR71a (cc. 10 µM) and 0.00 on Drosophila OR71a (cc. 100 µM). The “OR71a response (VUAA1-normalized response)” value on Drosophila OR71a (VOC concentration 1 μM), at Drosophila OR71a (VOC concentration 10 μM) and at Drosophila OR71a (VOC concentration 100 μM) was 0.00 each time. Further, the “DF norm AVERAGE OR71a” value on Drosophila OR71a (setting [7]), at Drosophila OR71a (setting [8]) and at Drosophila OR71a (setting [9]) was 0 in each case. For the same molecule, the “DF norm AVERAGE OR10a” value on Drosophila OR10a turned out to be 0; on Drosophila OR10a (setting [8]) it was 0.05923. For the same molecule, the “OR10a Average response (VUAA1-normalized)” value at Drosophila OR10a (1 μM VOC, 50 μM VUAA1 = 1, responses not exceeding 0.05 considered 0) stood at 0.02; at Drosophila OR10a (10 μM VOC, 50 μM VUAA1 = 1, responses not exceeding 0.05 considered 0) it was 0.06; at Drosophila OR10a (100 μM VOC, 50 μM VUAA1 = 1, responses not exceeding 0.05 considered 0), 0.00. Moreover, the “OR10a response (VUAA1-normalized response)” value at Drosophila OR10a (VOC concentration 1 μM) worked out at 0.00; at Drosophila OR10a (VOC concentration 10 μM), 0.06; on Drosophila OR10a (VOC concentration 100 μM), 0.00.
